In patent publication US11938098B2, “Method for killing HIV-infected cells using Bcl-2 inhibitors” (Mayo Foundation for Medical Education and Research, priority 2015, dated 2024):

What was measured:
[1] = system: Jurkat T cells stably expressing eGFP; test: Apoptosis and marker loss in Jurkat T cells stably expressing eGFP treated with CPT; assay type: cell-based
Description: FIGS. 12A-12G. Apoptotic cell death is associated with loss of protein and mRNA markers. Jurkat T cells stably expressing eGFP were treated with DMSO or CPT and assessed for cell viability by ATP content (FIG. 12A) and light scatter (FIG. 12B) over time. FIG. 12C, Expression of eGFP was measured by flow cytometry. FIG. 12D, Actin mRNA expression was assessed by qRT-PCR and expressed as mean Ct values normalized to baseline DMSO control. FIGS. 12E-12G, Cell death was assessed by active-caspase 3 expression (FIG. 12E), TUNEL (FIG. 12F), and LIVE/DEAD viability stain (FIG. 12G) and compared between eGFP positive and eGFP negative cells. FIG. 12A-12D values represent mean (range) of two independent experiments. FIGS. 12E-12G are representative of two independent experiments.
If BCL-2 neutralizes Casp8p41, then antagonizing BCL-2 should augment Casp8p41-induced killing, including when Casp8p41 is generated by latently HIV infected cells that reactivate the virus. Before testing this possibility, whether select markers (protein or nucleic acid based) remain detectable was first assessed when the cell of interest is undergoing death. Jurkat T cells stably expressing eGFP were treated with vehicle control or the cytotoxic quinolone alkaloid CPT to induce apoptosis, then examined for expression of eGFP (as a prototypic cytoplasmic protein) and actin mRNA (as a prototypic mRNA) over time.

[2] = system: Primary CD4 T cells from uninfected donors; test: Viability of primary uninfected CD4 T cells by flow cytometry; assay type: cell-based, human; details: N=7, 1 μM, Day 5
Text: (§1) Jurkat cells and HEK 293T cells were obtained from American Type Culture Collection (Manassas, Va.). Jurkat/Bcl-2 cells were created by transfecting Jurkat with a pcDNA-3 encoding Bcl-2 (obtained from Dr. Stan Korsmeyer), selecting for 30 days, and assessing Bcl-2 expression by immunoblotting. HIV-uninfected PBMCs were harvested by ficoll gradient centrifugation from Leukocyte Reduction System apheresis chambers provided by healthy volunteer blood donors. […]
(§2) Immunophenotyping of T cell subsets was performed using multicolor flow cytometry with monoclonal antibodies to human CD3 (Alexa700, BD Pharmingen), CD4 (FITC, BD Pharmingen), CD8 (Pacific Blue, BD Pharmingen), CD27 (PE, BD Pharmingen), and CD45RO (ECD, Beckman Coulter). […] Intracellular expression of Casp8p41 was assessed as described elsewhere (Cummins et al., AIDS Res. Hum. Retroviruses, 30:476-479 (2014)). Cell death was measured using LIVE/DEAD® Fixable Aqua dead cell stain (Invitrogen) or TUNEL (Roche) according to manufacturers' protocols. Cell proliferation was measured using a CellTrace™ CFSE Cell Proliferation Kit (Life Technologies) according to manufacturer's protocol. […] FACS data were analyzed using FlowJo software (Tree Star Inc).

Jurkat T cells = test: TUNEL cell death in Jurkat T cells transfected with EGFP-Casp8p41, vector control or no DNA; assay type: cell-based; details: Jurkat cells expressing eGFP-Casp8p41, 1 μM
Description: HEK 293T cells were transfected using Lipofectamine (Invitrogen, Carlsbad, Calif.) according to manufacturer's protocol. Jurkat cells were transfected using a square wave electroporator (BXT, San Diego, Calif.) at 320 V. Immunophenotyping of T cell subsets was performed using multicolor flow cytometry with monoclonal antibodies to human CD3 (Alexa700, BD Pharmingen), CD4 (FITC, BD Pharmingen), CD8 (Pacific Blue, BD Pharmingen), CD27 (PE, BD Pharmingen), and CD45RO (ECD, Beckman Coulter). Central memory T cells (TCM) were defined as CD3^+CD4^+CD27^+CD45RO^+, and effector memory T cells (TEM) were defined as CD3^+CD4^+CD27^−CD45RO^+/− (Brenchley et al., J. Exp. Med., 200:749-759 (2004)). Intracellular expression of Casp8p41 was assessed as described elsewhere (Cummins et al., AIDS Res. Hum. Retroviruses, 30:476-479 (2014)). Cell death was measured using LIVE/DEAD® Fixable Aqua dead cell stain (Invitrogen) or TUNEL (Roche) according to manufacturers' protocols. Cell proliferation was measured using a CellTrace™ CFSE Cell Proliferation Kit (Life Technologies) according to manufacturer's protocol. FACS analysis was performed on either a FACScan or LSRII flow cytometer (BD Biosciences) based on multiparameter needs. FACS data were analyzed using FlowJo software (Tree Star Inc).

[3] = system: Primary CD4 T cells from ART-suppressed HIV positive patients; test: Viability by trypan blue exclusion of CD4 T cells from ART-suppressed HIV positive patients; assay type: cell-based, human; details: bulk primary CD4 T cells from HIV infected ART suppressed patients; 1 μM; 24 hours
Description: FIGS. 11A-11D. […] FIG. 11A, Jurkat T cells pretreated with increasing concentrations of venetoclax or diluent DMSO were transfected with EGFP-Casp8p41, vector control, or no DNA, and assayed for cell death by TUNEL. Data are representative of three independent experiments. FIG. 11B, Primary CD4 T cells from seven uninfected donors were treated with venetoclax (1 μM) or diluent, and assayed for cell viability by flow cytometry over 5 days. FIG. 11C, Primary CD4 T cells from four uninfected donors were stimulated with phytohemagglutinin (2 μg/mL) in the presence of venetoclax (1 μM) or diluent and assayed for proliferation by CFSE staining. FIG. 11D, Primary CD4 T cells from seven ART-suppressed HIV positive patients were treated with venetoclax (1 μM) or DMSO control for 24 hours and assessed for viability by trypan blue exclusion.

[4] = in vivo; cited from earlier work
HIV-1IIIb = test: Acute HIVIIIb infection of primary CD4 T cells in vitro (viability, p24, cell associated HIV DNA); assay type: cell-based
Text: as §1
as §2, with “Inc). […]” for “Inc).”

[5] = system: latently HIV infected CD4 T cells; test: Ex vivo HIV reactivation (αCD3/αCD28) in CD4 T cells from suppressed HIV-infected patients; assay type: cell-based, human
Description: FIGS. 10A-10E. Selective Bcl-2 inhibition reduces HIV DNA associated with cells after viral reactivation ex vivo. […] After 72 hours, cell associated HIV DNA was measured. FIG. 10B, Freshly obtained peripheral CD4 T cells from an additional 16 suppressed HIV-infected patients were treated with ABT-199 or DMSO followed by αCD3/αCD28 for 72 hours before cell associated HIV DNA was measured. Depicted is the ratio of HIV DNA in ABT-199 treated vs. diluent treated samples for each patient with measurable HIV DNA in the diluent sample (n=11). FIG. 10C, Primary CD4 T cells from HIV-infected subjects were treated with ABT-199 or diluent and assayed for intracellular Casp8p41 and active caspase 3 in the TCM subset. Representative data of three independent subjects. FIG. 10D, Primary CD4 T cells from four HIV-infected subjects were treated with venetoclax or diluent and induced to reactivate HIV using CD3/CD28, and cell death measured in HIV P24 positive or negative cells using activated caspase 3 staining. FIG. 10E, HIV RNA was measured in cell culture supernatant from 6 of the 11 patient experiments from FIG. 10B.
Jurkat and Jurkat/Bcl-2 cells were infected overnight, while primary PHA-activated CD4 T cells were infected for 6 hours with HIV-1IIIb (NIH AIDS Reagent Program). Aliquots of the same infectious supernatant were used for all experiments. Cells were then washed three times and incubated in fresh medium. At the indicated time points, HIV-1 p24 in the cell culture supernatant was measured by RETROTEK™ ELISA kits (Zeptometrix Corporation) according to manufacturer's protocol. […] Briefly, total DNA was extracted using the Qiagen DNeasy Blood and Tissue kit (Hilden, Germany) and analyzed by a real-time polymerase chain reaction (PCR) assay specific for HIV-LTR and β-globin. […] Total HIV-1 DNA was compared and normalized with genomic DNA, determined by β-globin. HIV-1 proviral DNA levels were expressed as HIV-1 copies/β-globin genomic equivalent of 10^6 cells.

[6] = system: Primary CD4 T cells from uninfected donors; test: Mitogen-induced proliferation of uninfected CD4 T cells by CFSE staining; assay type: cell-based, human; details: phytohemagglutinin, 1 μM, Day 3
Text: as §1, §2

[7] = cited from earlier work
Bcl-2 = test: SPR binding of Casp8p41 to purified recombinant Bcl-2; details: Bcl-2 Arg146Ala vs Bcl-2, SPR
Description: After plasmids encoding GST tagged proteins were transformed into E. coli BL21 or DH5α by heat shock, bacteria were grown to an optical density of 0.8 and induced with 1 mM IPTG for 3 hours at 37° C. Bacteria were disrupted by freezing and thawing in calcium- and magnesium-free Dulbecco's phosphate buffered saline (PBS) containing 0.1% Triton X-100, 2 μg/mL aprotinin, 10 μg/mL leupeptin, 2 μg/mL pepstatin, and 1 mM PMSF, then sonicated three times for 15 sec/min on ice. GST-tagged proteins were purified with glutathione-agarose (Thermo Fisher Scientific, Rockford, Ill.).
Proteins for SPR were further purified by FPLC on Superdex 5200, concentrated in a centrifugal concentrator (Centricon, Millipore), dialyzed against Biacore buffer (10 mM HEPES (pH 7.4), 150 mM NaCl, 0.05 mM EDTA, and 0.005% (w/v) Polysorbate 20) and stored at 4° C. for <48 hours before use. Binding assays were performed at 25° C. on a Biacore 3000 biosensor after proteins were immobilized on a CMS chip (GE Healthcare). Ligands were injected at 30 μL/minute for 1 minute in Biacore buffer. Bound protein was allowed to dissociate in Biacore buffer at 30 μL/minute for 10 minutes and then desorbed with 2 M MgCl2. Binding kinetics were derived using BIA evaluation software (Biacore, Uppsala, Sweden).

CC[C@@]1(O)C(=O)OCc2c1cc1n(c2=O)Cc2cc3ccccc3nc2-1 [CPT, camptothecin]
eGFP negative cells ([1]; by 48 hours): 97%
cell viability by cellular ATP content and light scatter ([1]; compared to diluent-treated cells): decreased cell viability
reduction of detectable actin message compared to diluent control ([1]; qRT-PCR): 34%
detectable eGFP (eGFP+ cells) ([1]; {}): 17 % eGFP+

CC1(C)CCC(CN2CCN(c3ccc(C(=O)NS(=O)(=O)c4ccc(NCC5CCOCC5)c([N+](=O)[O-])c4)c(Oc4cnc5[nH]ccc5c4)c3)CC2)=C(c2ccc(Cl)cc2)C1 [venetoclax]
viability, mean difference vs control treated cells [2]: −7.2±4.8%
increase in cell death, mean difference vs diluent (Jurkat T cells): 25.7±10.3%
viability, mean difference vs DMSO control [3]: −4.7±1.6 % viable
peak plasma levels [4]: up to 5 μM
survival or mitogen-induced proliferation of mock-infected CD4 T cells (HIV-1IIIb): had no effect
samples exhibiting a decrease of cell associated HIV DNA ([5]; freshly isolated primary CD4 T cell samples, 8 of 11): 73%
median cell death (active caspase 3) in p24− cells ([5]; αCD3/αCD28 reactivated, control 2.5%, P=0.189): 10.3%
proportion of HIV p24+ CD4+ cells that are active caspase 3+ ([5]; αCD3/αCD28 reactivated, control 23%, P=0.026): 47 % active caspase 3+
mean difference in percent CFSE low cells [6]: -1.1±7.9%
cases of dose limiting neutropenia ([7]; 40 NHL patients receiving monotherapy): 2 cases
tolerability in early phase clinical trials ([7]; human, in vivo): well tolerated

DMNLLDIFIEMEKRVILGEGKLDILKRVCAQ (Casp8p41 BH3-like peptide) [Casp8p41 activator peptide]
decrease of affinity of Bcl-2 by substitution of Ala for Bcl-2 Arg146 (Bcl-2): 250 fold
